Assay results reported in US20200405719A1, “CANCER TREATMENT USING COMBINATION OF NEUTROPHIL MODULATOR WITH MODULATOR OF IMMUNE CHECKPOINT” (APOLLOMICS INC., priority 2018, published 2020).
Like-named read-outs stand apart in the source and are kept apart here.

How the values were obtained:
[1] = 3 mg/kg IV on Day 1 and Day 15 of 28-day cycle; relapsed and refractory solid tumor subjects; cited from earlier work
MC38 tumor cells = experiment: MC-38 syngeneic colon cancer model, tumor growth and tolerability; format: in vivo
Procedure: The inventors undertook a combination study of APL-101 and an anti-PD-1 antibody to evaluate the safety and efficacy of the combination. In the MC-38 colon cancer model in syngeneic mice, four groups, five animals per group received either vehicle (water at 20 mg/kg orally, once a day), APL-101 (10 mg/kg orally, once a day), anti-PD-1 (10 mg/kg intraperitoneal injection, twice a week), or APL-101 plus anti-PD-1. In the vehicle group as well as the APL-101 group, animals were dosed daily on Days 1-15 whereas in the single agent anti-PD-1 group, doses were administered on Days 1, 4, 8, 11, and 15. In the combination arm of APL-101 and anti-PD-1, APL-101 was administered on Days 5-15 (4-day delay) while the anti-PD-1 was dosed on Days 1, 4, 8, 11, and 15.
(§1) Animals: female C57BL/6 mice, age 6-8 weeks and of body weight 18-20 g, were provided by Shanghai Lingchang Bio-Technology Co. Ltd.
APL-101 were provided by CBT pharmaceuticals (now Apollomics, Inc.). Anti-PD 1 antibodies were supplied by BioXcell.
Cell culture: The MC38 tumor cells were thawed and maintained in vitro as a monolayer culture in DMEM medium supplemented with 10% heat inactivated fetal bovine serum at 37° C. in an atmosphere of 5% CO2 in air. […] The cells growing in an exponential growth phase were harvested and counted for tumor inoculation. […]
Group assignment: Before grouping and treatment, all animals were weighed and the tumor volumes were measured using a caliper. […]
Observation and data collection: After tumor cells inoculation, the animals were checked daily for morbidity and mortality. During routine monitoring, the animals were checked for any effects of tumor growth and treatments on normal behavior such as mobility, visual estimation of food and water consumption, body weight gain/loss (body weights were measured twice per week after randomization), eye/hair matting and any other abnormal effect. Death and observed clinical signs were recorded in the comment of datasheet for each animal in detail. […] (Tumor weight was measured at the end of study). […]

RENCA tumor cells = experiment: Syngeneic Renca kidney cancer model, tumor growth and tolerability; format: in vivo
Source text: The inventors undertook a combination study of APL-101 and an anti-PD-1 antibody to evaluate the safety and efficacy of the combination. […]
as §1
APL-101 were provided by CBT pharmaceuticals (Apollomics, Inc.). Anti-PD 1 antibodies were supplied by BioXcell. PVP K30 were supplied by Fluka Analytical.
Cell culture: The Renca tumor cell line was maintained in vitro in DMEM medium supplemented with 10% fetal bovine serum at 37° C. in an atmosphere of 5% CO2 in air. The tumor cells were routinely subcultured twice weekly. The cells growing in an exponential growth phase were harvested and counted for tumor inoculation. […]
(§2) Observation and data collection: After tumor cells inoculation, the animals were checked daily for morbidity and mortality. During routine monitoring, the animals were checked for any effects of tumor growth and treatments on behavior such as mobility, food and water consumption, body weight gain/loss (body weights were measured twice weekly after randomization), eye/hair matting and any other abnormalities. Mortality and observed clinical signs were recorded for individual animals in detail. […] (Tumor weight were measured at the end of study). […]

[2] = 150 mg every 12 hours; 300 mg total daily dose; cited from earlier work
H22 tumor cells = experiment: H22 syngeneic liver cancer model, tumor growth and tolerability; format: in vivo
Procedure: The inventors undertook a combination study of APL-101 and an anti-PD-1 antibody to evaluate the safety and efficacy of the combination. In the H22 liver cancer model in syngeneic mice, four groups, ten animals per group received either vehicle (PVP K30 at 20 mg/kg orally, once a day for three weeks), APL-101 (10 mg/kg orally, once a day for three weeks), anti-PD-1 (10 mg/kg intraperitoneal injection, twice a week for three weeks), or APL-101 plus anti-PD-1.
as §1
APL-101 were provided by CBT pharmaceuticals (now Apollomics, Inc.). […]
Cell culture: The H22 tumor cell line were maintained in vitro in RPMI-1640 medium supplemented with 10% fetal bovine serum at 37° C. in an atmosphere of 5% CO2 in air. […] The cells growing in an exponential growth phase were harvested and counted for tumor inoculation. […]
as §2, with “abnormalities.” for “abnormalities. Mortality and observed clinical signs were recorded for individual animals in detail.”

Molecule	dose deemed safe by Safety Review Committee [1]	Mean percent tumor growth (MC38 tumor cells; MC 38 syngeneic model, APL-101 10 mg/kg qd, anti-PD-1 Ab 10 mg/kg biw)	body weight of treated mice (MC38 tumor cells; MC-38 model, FIG. 1C, alone or in combination)	mean percent tumor growth inhibition (MC38 tumor cells; MC-38 syngeneic mice, APL-101 PO 10 mg/kg QD, anti-PD-1 IP 10 mg/kg BIW, combination x2 weeks, single agents x3 weeks)	body weight of treated mice (RENCA tumor cells; RENCA model, FIG. 3C, alone or in combination)	Mean percent tumor growth (RENCA tumor cells; syngeneic Renca kidney cancer model, APL-101 10 mg/kg QD x3 weeks, anti-PD-1 IP 10 mg/kg BIW x3 weeks)	dose deemed safe by Safety Review Committee [2]	Mean percent tumor growth (H22 tumor cells; H22 syngeneic liver cancer model, APL-101 10 mg/kg QD x3 weeks, anti-PD-1 IP 10 mg/kg BIW x3 weeks)	body weight of treated mice (H22 tumor cells; H-22 model, FIG. 2C, alone or in combination)
APL-501: anti-PD-1 antibody, previously named CBT-501, see WO2016/014688	safe								
Cn1cc2cc(C(F)(F)c3nnc4ccc(-c5cnn(C6CC6)c5)nn34)c(F)cc2n1 [APL-101]		35.61%	did not affect the body weight	33.6%	did not affect the body weight	77%	safe	108.73%	did not affect the body weight
